Experimental data: patent EP0326628A1, “Method for inhibiting the release of histamine” (VIPONT PHARMACEUTICAL, INC., priority 1988, dated 1989)
Read-outs that look alike come from different tables or passages of the source.

Assays:
mast cells [1] = assay: Histamine release from rat isolated peritoneal mast cells and its inhibition; format: cell-based, male Wistar rat; settings: for Histamine Release (%) / inhibition at 5 µM: Sanguinarine 5 µM
Method: In exemplifying the invention, mast cells were isolated from the peritoneal fluid of male Wistar rat as described in Sugiyama, K. (1971) Japan J. Pharmacol. 21, 209-226. The mast cells were suspended in a phosphate buffered saline solution consisting of 154 mM sodium chloride, 2.7mM potassium chloride, 0.9 mM calcium chloride, 6.7 mM KH₂PO₄-Na₂HPO₄, (pH 7.3), and 0.01% bovine serum albumin obtained from Sigma.
For the determination of histamine release and its inhibition by sangainarine., mast cells at a cell density of 10⁵ cells/ml suspended in 0.5 ml of phosphate-buffered saline, were incubated at 37°C for 10 minutes with histamine releasers, more about which is stated below. Sanguinarine was added 5 minutes before the specific histamine releaser. After the action was terminated by the addition of 1.5 ml of ice-cold phosphate-buffered saline solution, the samples were centrifuged at 2,000 rpm for 15 minutes. The histamine in the supernatants and precipitates was determined according to the method of Shore, P.A., Burkhalter, A. and Cohn N.H. (1959) J. Pharmacol. Exp Ther. 127, 182-186. Release of histamine was expressed as a percentage of the total cell content. Percentages of inhibition by sanguinarine were measured according to the following equation: [formula] The sanguinarine chloride was provided from Vipont Laboratories Inc. and is manufactured in the manner disclosed above.
Histidine-rich polypetide fraction A, known as HRP(F-A) was purified from human saliva in accordance with the procedure of Sugiyama, K., Suzuki, Y and Furuta, H (1985) Life Sciences. 37, 475-480. The comparison was carried out with known histamine releasers, namely, 48/80; Concanavalin A; calcium-ionophore A23187. These releasers may be obtained from Sigma Co.
With regard to Figure 1, inhibition by sanguinarine of histamine release induced by compound 48/80 is shown. The mast cells were incubated at 37°C for 10 minutes with and without compound 48/80 in the presence of sanguinarine in varying concentrations. (●) Sanguinarine with compound 48/80 (0.5 µ g/ml), (0) Sanguinarine without compound 48/80.

mast cells [2] = assay: Literature (Pearce et al. 1979): inhibition of histamine release produced by compound 48/80, calcium-ionophore A23187 and basic peptide 401; format: cell-based; settings: comparison of IC50 with sanguinarine inhibited histamine release
mast cells [3] = settings: release produced by compound 48/80, calcium-ionophore A23187, basic peptide 401; read-out: IC50, inhibition of histamine release; cited from earlier work
mast cells [4] = settings: compound 48/80; read-out: IC50, compound 48/80 induced histamine release; cited from earlier work

For C[n+]1cc2c3c(ccc2c2ccc4cc5c(cc4c21)OCO5)OCO3 [Sanguinarine, sanguinarine], the “Histamine Release (%)” value (mast cells [1]; A23187 (1 µ M)) was 21.1%, the “Histamine Release (%)” value (mast cells [1]; Compound 48/80 (0.5 µ g/ml)) was 15.4% and the “Histamine Release (%)” value (mast cells [1]; Con A (10 µg/ml) in the presence of phosphatidylserine (10 µ g/ml)) was 27.3%. For the same molecule, the “Histamine Release (%)” value (mast cells [1]; HRP (16 µ M)) was 17.6%, the IC50 (mast cells [1]; Rattus norvegicus, Mast cell, 10 min, compound 48/80 (0.5 µ g/ml), 37°C, 10 minutes, Figure 1, read-out: IC50 (inhibition concentration), 48/80 induced histamine release from mast cells) was roughly 2 µM and the inhibition at 5 µM (mast cells [1]; Rattus norvegicus, Mast cell, A23187 (1 µ M)) was 63.4%. For the same molecule, the inhibition at 5 µM (mast cells [1]; Rattus norvegicus, Mast cell, Compound 48/80 (0.5 µ g/ml)) was 78.7%, the inhibition at 5 µM (mast cells [1]; Rattus norvegicus, Mast cell, Con A (10 µg/ml) in the presence of phosphatidylserine (10 µ g/ml)) was 56.6% and the inhibition at 5 µM (mast cells [1]; Rattus norvegicus, Mast cell, HRP (16 µ M)) was 69.4%. For the same molecule, the inhibition at 5 µM (mast cells [1]; Rattus norvegicus, Mast cell, Triton X-100 (0.01 %)) was -10.6% and the “Histamine Release (%)” value (mast cells [1]; Triton X-100 (0.01 %)) was 93.8%.

In the case of O=C(O)c1cc(=O)c2c(OCC(O)COc3cccc4oc(C(=O)O)cc(=O)c34)cccc2o1 [cromoglycate], the “times less active than sanguinarine” value (mast cells [2]) is given as 10 to 100 times and the IC50 (mast cells [3]) is given as 10 to 1000 µM.

In the case of C[C@]12CCC(=O)C=C1CC[C@@H]1[C@@H]2[C@@H](O)C[C@@]2(C)[C@H]1CC[C@]2(O)C(=O)CO [hydrocortisone], the IC50 (mast cells [4]) is listed as 2100 µM.

In the case of COc1ccc2c(c1)c(CC(=O)O)c(C)n2C(=O)c1ccc(Cl)cc1 [indomethacin], the IC50 (mast cells [4]) is listed as 75 µM.

In the case of O=C([O-])c1ccccc1O.[Na+] [sodium salicylate], the IC50 (mast cells [4]) is listed as 1600 µM.

For Cn1c(=O)c2[nH]cnc2n(C)c1=O [theophylline], the “times less active than sanguinarine” value (mast cells [2]) is given as 10 to 100 times and the IC50 (mast cells [3]) is given as 10 to 1000 µM.
